According to patent publication US20240336583A1, “BENZO-RING-CONTAINING DERIVATIVE, AND PREPARATION METHOD THEREFOR AND USE THEREOF” (SHUJING BIOPHARMA CO., LTD, priority 2021, published 2024):

Columns and labels:
Assay type in all cases: in vivo
[1] = Mouse LD50 test (sequential method, tail vein bolus); conditions: mouse, in vivo, intravenous; ICR mice, tail vein bolus within 10 seconds, sequential method, AOT425 software; read-out: LD50 (median lethal dose: dose required to cause 50% of the mice to die)
Description: (§1) The ED50 value and LD50 value of the compound of the present invention were measured using a sequential method. The TI (therapeutic index) of the drug was calculated. The animal symptoms in the experimental process were observed, and the drug effect, safety and side effects of the compound of the present invention were examined.
(§2) SPF grade ICR mice (Pizhou Oriental Breeding Co., Ltd.), 22-28 g, 15 mice/group. All mice received 3 days of quarantine and acclimation and were transferred from the feeding room to the laboratory for acclimation 1 h prior to the experiment.
(§3) The test compound was dissolved in 20% fat emulsion or purified water to prepare a 5 mg/ml drug liquid.
(§4) During the test, firstly a mouse was dosed at the tail vein, and the bolus injection was completed within 10 seconds. […] Finally, the AOT425 Statpm software was used to calculate the ED50 (median effective dose: the dose required to cause 50% of the mice to lose the righting reflex by the test) and LD50 (median lethal dose: the dose required to cause 50% of the mice to die by the test) values. The formula for TI (therapeutic index) was: TI=LD50/ED50.

ICR mice [2] = test: as above; conditions: TI=LD50/ED50, ICR mice, tail vein
Description: as §1, §2, §3, §4

ICR mice [3] = test: Mouse righting reflex test (ED50, sequential method, tail vein bolus); conditions: for Symptoms in test animals in ED50 test: after tail vein administration; for ED50 (median effective dose: dose required to cause 50% of the mice to lose the righting reflex) / ED50: tail vein bolus within 10 seconds, sequential method, AOT425 software; for ED50: Mus musculus, read-out: ED50 (median effective dose: dose required to cause 50% of the mice to lose the righting reflex)
Description: The ED50 value and LD50 value of the compound of the present invention were measured using a sequential method. The TI (therapeutic index) of the drug was calculated.
as §2, §3, §4

SMILES | LD50 [1] [mg/kg] | TI (therapeutic index) (ICR mice [2]) | Symptoms in test animals in ED50 test (ICR mice [3]) | ED50 (median effective dose: dose required to cause 50% of the mice to lose the righting reflex) (ICR mice [3]) [mg/kg] | ED50 (ICR mice [3]) [mg/kg]
CC1COc2c(F)cc(C(C)C3CC3)c(O)c21 (single isomer, unassigned) [Example 4, 5-(1-cyclopropylethyl)-7-fluoro-3-methyl-2,3-dihydrobenzofuran-4-ol] | 62.5 | 7.0 | The animals' condition was stable after | 8.9 | –
CC1COc2c(F)cc(C(C)C3CC3)c(OCOP(=O)([O-])[O-])c21.[Na+].[Na+] (single isomer, unassigned) [Example 10A1, sodium (5-(1-cyclopropyl)-7-fluoro-3-methyl-2,3-dihydrobenzofuran-4-yl) oxymethyl phosphate] | – | – | The animals' condition was stable after | – | –
CC1COc2c(F)cc(C(C)C3CC3)c(O)c21 (single isomer, unassigned) [Example 11A1, 5-(1-cyclopropylethyl)-7-fluoro-3-methyl-2,3-dihydrobenzofuran-4-ol] | – | – | The animals' condition was stable after | 4.0 | –
CC(C)c1cccc(C(C)C)c1OCOP(=O)(O)O [Fospropofol sodium, reference compound] | – | – | – | – | 112
CC(C)c1cccc(C(C)C)c1O [Propofol, reference compound] | 55.9 | 4.3 | Some animals exhibited body twitching and | – | 12.9
